Test results reported in US7169580B1, “Protein having PGE2 synthase activity and use thereof” (Chugai Seiyaku Kabushiki Kaisha, priority 2000, dated 2007).
Changes are numbered by the printed parent chain. “Also recorded” adds a separate entry of the source.

What was measured:
Assay type in all cases: biochemical
PGES-1 = target: T1, PGES-1 (Homo sapiens, UniProt Q15185); assay: PGES activity in lysate of HEK293 cells transfected with PGES-1 cDNA; conditions: lysate of HEK293 cells transfected with PGES-1, coexistence of CDNB
T1 construct: the cDNA of full-length human progesterone receptor complex component protein p23 was isolated by RT-PCR; expressed in transfected cells; host or cells: HEK293
T1 sequence (Q15185 1-160): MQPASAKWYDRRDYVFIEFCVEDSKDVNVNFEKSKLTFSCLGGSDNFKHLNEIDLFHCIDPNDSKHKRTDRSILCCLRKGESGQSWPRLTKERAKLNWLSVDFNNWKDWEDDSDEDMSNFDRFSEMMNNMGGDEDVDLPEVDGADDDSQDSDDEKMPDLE
Method: (§1) PGES activity was measured as follows: Cells suspended in 20 mmol/L Tris-hydrochloride buffer (pH 7.4) were homogenized using ultrasonic homogenizer (Branson Sonifier Model 200) and centrifuged at 800×g for 5 minutes at 4° C., and the supernatant was used as the cell lysate in the following. 0.5 μg of PGH2 was added to the lysate, which was suspended with 0.1 mol/L Tris-hydrochloride buffer (pH 8.0) containing 1 mmol/L GSH, with a protein content of 10 μg, was incubated for 30 seconds at 24° C., and then 8 mmol/L FeCl2 was added to terminate the reaction. The amount of produced PGE2 was measured by Enzyme Immunoassay Kit (Cayman), and PGES activity was expressed as the amount of PGE2 produced per 30 seconds, per 10 μg of protein (ng/30 sec/10 μg protein).
Peptide mapping of PGES-1 protein was carried out using V8 protease, and 3 fragments among the peptide fragments were analyzed by N-terminal amino acid sequence analyzer to determine the partial amino acid sequence thereof. According to GenBank database search with one of these amino acid sequences, the sequence completely matched to a portion of a known sequence reported as the human progesterone receptor complex component protein p23 (Johnson, J L et al., Mol. Cell. Biol., 14:1956–63, 1994). […] Thus, the cDNA was confirmed to encode the desired PGES.

PGES-2 = target: T2, PGES-2 (Homo sapiens, UniProt O14684); assay: PGES activity in HEK293 cells transfected with PGES-2; conditions: HEK293 cells transfected with PGES-2, coexistence of CDNB
T2 construct: expressed in transfected cells; host or cells: HEK293
T2 sequence (O14684 1-152): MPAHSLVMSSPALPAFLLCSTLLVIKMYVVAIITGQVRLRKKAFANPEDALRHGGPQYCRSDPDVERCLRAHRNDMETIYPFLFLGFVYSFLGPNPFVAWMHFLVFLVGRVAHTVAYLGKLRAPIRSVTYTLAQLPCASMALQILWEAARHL
Method: as §1

[1] = target: T3, PGES activity of peak C (PGES-1) (Rattus norvegicus, UniProt P83868); assay: PGES activity of Superdex 200 gel filtration fractions of rat brain soluble fraction; conditions: Superdex 200 peak C (approximately 50 kDa), in contrast to peaks A and B
T3 construct: from tissue; host or cells: brain of LPS-administered rat: 100,000 x g supernatant, 60-80% ammonium sulfate, DEAE-Sephacel, Superdex 200 peak C
T3 sequence (P83868 1-160): T1 sequence (Q15185 1-160) with N128D, N129H
Method: as §1
150 μg/kg body LPS (Salmonella minnesota: Re595) was administered intravenously from rat tail. Rat brain was removed 2 days after the injection and was homogenized using Potter's homogenizer at 4° C. […]
A protein of a molecular weight of about 27 kDa, corresponding with the PGES activity (PGES-1), was obtained by SDS electrophoretic analysis of peak C (FIG. 3, bottom). The production of this protein was predicted to elevate in response to inflammatory stimulus due to the fact that large amount of the protein was detected in LPS-administered rats than in normal rats.

## O=[N+]([O-])c1ccc(Cl)c([N+](=O)[O-])c1 [CDNB, 1-chloro-2,4-dinitrobenzene]
PGES-1
  effect of CDNB on GSH-dependent PGES activity of recombinant PGES-1: CDNB sensitive; also recorded: suppressed
PGES-2
  effect of CDNB on GSH-dependent PGES activity of recombinant PGES-2: CDNB insensitive; also recorded: not suppressed
[1]
  effect of CDNB on PGES activity of peak C: strongly inhibited
